Assay results: patent US20080269666A1, “Microneedles and Methods for Microinfusion” (GEORGIA TECH RESEARCH CORPORATION, priority 2005, published 2008)
Values belong to the compound of their own block, whether it stands above or below them.

Key:
[1] = Fluorescence microscopy of skin distribution after microinjection into hairless rat skin; format: in vivo
Description: FIG. 17A-B are micrographs showing hairless rat skin microinjected in vivo with FITC-insulin. Histological sections are shown using brightfield microscopy with H&E staining (FIG. 17A) and fluorescence microscopy showing injection and distribution of insulin in the skin (FIG. 17B). Scale bar=100 μm. Single, hollow, glass microneedles were inserted into the back skin of anesthetized rats placed in a prone position or into human cadaver skin (2×2 cm^2) placed on a x-y stage. Compounds delivered included blue tissue-marking dye in PBS (20% v/v, Shandon, Pittsburg, Pa.), green-fluorescent calcein in PBS (10 μM-10 mM, Molecular Probes, Eugene, Oreg.). After microinfusion experiments, skin samples were preserved as described in Example 1. Histological sections of skin were examined by stereoscopic (SZX12, Olympus, Melville, N.Y.) and fluorescence microscopy (IX 70, Olympus). Images were recorded by a digital camera (Spot RT Slider camera, Model 231, Diagnostic Instruments, Sterling Heights, Mich.) and analyzed using image analysis software (Image Pro Plus, version 4.5, Media Cybernetics, Silver Spring, Md.). The volume of injected liquid was imaged in the skin for quantitative analysis using one of three different methods. […] During insulin delivery experiments, rats were anesthetized. […]

[2] = Effect of hyaluronidase on microneedle infusion flow rate into human cadaver skin in vitro; conditions: 200 U/ml hyaluronidase in sulforhodamine solution vs without; bevel-tip microneedle inserted 1080 μm; 138 kPa; ANOVA p≦0.01
Protocol: To measure flow rate into skin during microneedle infusion, a single microneedle was inserted into human cadaver skin to microinfuse sulforhodamine solution and the infusion flow rate was measured over time. As an aid to visualizing flow into skin, sulforhodamine-B dye (Molecular Probes, Eugene, Oreg.) was added to PBS, stirred, and filtered (0.2 μm pore size, Nalge Nunc International, Rochester, N.Y.) to make 1×10^−3 M sulforhodamine solution. […]
The flow rate of sulforhodamine solution microinjection was determined by following movement of the gas-liquid meniscus in the syringe reservoir over time with a digital video camera (DCR-TRV460, Sony, Tokyo, Japan) and image analysis software (Adobe Photoshop 7.0, Adobe Systems, San Jose, Calif.) after converting the captured movie into sequences of still images (Adobe Premiere 6.0, Adobe Systems). […]
The effect of hyaluronidase was determined by comparing to an infusion fluid containing 200 U/ml hyaluronidase prepared by mixing 3 ml of hyaluronidase solution (Vitrase™, 200 U/ml, ISTA Pharmaceuticals, Irvine, Calif.) with 7 mL of 1×10^−3 M sulforhodamine solution. […] Microinfusion flow rate was measured as a function of retraction distance during infusion in the absence (white bars) or presence (black bars) of hyaluronidase. Data are expressed as mean values (n≧3) with standard deviation bars. […]

diabetic hairless rats = test: Blood glucose in diabetic hairless rats after insulin microinfusion through a hollow microneedle; format: in vivo, rat
Protocol: During insulin delivery experiments, rats were anesthetized. Microneedle infusion was carried out as described in Example 4, using clinical insulin solution (100 U/ml, Humulin R, Eli Lilly, Indianapolis, Ind.), and FITC-labeled insulin in PBS (1 mg/ml, Sigma).
As a companion experiment, insulin was microinjected into the skin of diabetic hairless rats in vivo and blood glucose concentration was monitored over time. Microinjection was carried out via microneedle insertion to a depth of 500-800 μm and infusing for 30 min. The volume of insulin solution microinjected into diabetic rat skin was 5±1 μl over the 30-min infusion period. Over a 4.5-h monitoring period after infusion, blood glucose level dropped and then plateaued at approximately 25% below pre-treatment values. […] Data expressed as mean±SEM.
Recognizing that needle retraction can increase microinfusion, the insulin delivery experiment was repeated by inserting microneedles to the same initial depth in the skin and then retracting by 150-200 μm back toward the skin surface. […] The volume of insulin solution microinjected into diabetic rat skin after needle retraction was 29±12 μl over the 30-min infusion period. […]

Compound: O=C(O)CN(CC(=O)O)Cc1cc2c(cc1O)Oc1cc(O)c(CN(CC(=O)O)CC(=O)O)cc1C21OC(=O)c2ccccc21 [calcein]
distribution in skin after microinjection (fluorescence) ([1]; injection at a specific location within the dermis, histological sections): fluoresced more uniformly in both dermis and epidermis

Compound: fluorescently labeled insulin: FITC-labeled insulin in PBS (1 mg/ml, Sigma)
distribution in skin after microinjection (fluorescence) ([1]; rat, in vivo): distribute throughout the dermis

increase in infusion flow rate [2]: 7 fold
Compound: hyaluronidase

Compound: insulin
blood glucose level drop below pre-treatment values (diabetic hairless rats; microneedle inserted 500-800 μm, no retraction, 30-min infusion of 100 U/ml insulin solution (5±1 μl injected), 4.5-h monitoring after infusion, plateau): approximately 25%
blood glucose level drop below pre-treatment values (diabetic hairless rats; microneedle inserted to same depth then retracted 150-200 μm, 30-min infusion of 100 U/ml insulin solution (29±12 μl injected)): approximately 70%
